Converted amounts (≈) assume the structure as drawn.
Details: not given

| Structure (SMILES) | logP |
| --- | --- |
| COC(=O)CS(=O)(=O)c1ccccc1 | 0.93 |
| CC(C)OC(=O)CS(=O)(=O)c1ccc(Cl)cc1 | 2.04 |
| COC(=O)CS(=O)(=O)c1ccc(Cl)cc1 | 1.31 |
| COC(=O)CS(=O)(=O)c1ccc(Br)cc1 | 1.52 |

Further lines, results first:

| logP | Structure (SMILES) |
| --- | --- |
| 2.54 | COC(=O)C1(S(=O)(=O)c2ccc(C)cc2)CCCCC1 |
| 2.88 | Cc1ccc(S(=O)(=O)C2(C(=O)OC(C)C)CCCC2)cc1 |

Same assay, conditions: 25 °C

| Structure (SMILES) | solubility [µM] |
| --- | --- |
| CC(C)OC(=O)C1(S(=O)(=O)c2ccc([N+](=O)[O-])cc2)CCCCCC1 | 8.5 (≈ 3.14 µg/mL) |
| CC(C)OC(=O)C1(S(=O)(=O)c2ccc([N+](=O)[O-])cc2)CCC1 | 174 (≈ 56.9 µg/mL) |
| COC(=O)C1(S(=O)(=O)c2ccc(Br)cc2)CC1 | 214 (≈ 68.2 µg/mL) |
| COC(=O)C1(S(=O)(=O)c2ccc(Br)cc2)CCCCC1 | 33.2 (≈ 12 µg/mL) |
| COC(=O)C1(S(=O)(=O)c2ccccc2)CCCCC1 | 1410 (≈ 399 µg/mL) |
| COC(=O)C1(S(=O)(=O)c2ccc([N+](=O)[O-])cc2)CC1 | 417 (≈ 119 µg/mL) |
| CC(C)(C)OC(=O)C1(S(=O)(=O)c2ccc(Cl)cc2)CC1 | 75.8 (≈ 24 µg/mL) |
| COC(=O)C1(S(=O)(=O)c2ccccc2)CC1 | 5490 (≈ 1320 µg/mL) |
| COC(=O)C1(S(=O)(=O)c2ccc(Cl)cc2)CC1 | 491 (≈ 135 µg/mL) |
| CC(C)OC(=O)C1(S(=O)(=O)c2ccc(Cl)cc2)CCCC1 | 22.4 (≈ 7.41 µg/mL) |
| COC(=O)C1(S(=O)(=O)c2ccccc2)CCCC1 | 2820 (≈ 756 µg/mL) |
| CC(C)OC(=O)C1(S(=O)(=O)c2ccc([N+](=O)[O-])cc2)CC1 | 54.9 (≈ 17.2 µg/mL) |
| CC(C)OC(=O)C1(S(=O)(=O)c2ccc(Cl)cc2)CC1 | 288 (≈ 87.3 µg/mL) |
| COC(=O)C1(S(=O)(=O)c2ccccc2)CCC1 | 999 (≈ 254 µg/mL) |

Next, values leading:

| solubility [µM] | Structure (SMILES) |
| --- | --- |
| 976 (≈ 262 µg/mL) | CCOC(=O)C1(S(=O)(=O)c2ccc(C)cc2)CC1 |
| 1000 (≈ 289 µg/mL) | COC(=O)C1(S(=O)(=O)c2ccc(Cl)cc2)CCC1 |
| 1100 (≈ 310 µg/mL) | CCOC(=O)C1(S(=O)(=O)c2ccc(C)cc2)CCC1 |
| 282 (≈ 93.9 µg/mL) | COC(=O)C1(S(=O)(=O)c2ccc(Br)cc2)CCC1 |
| 588 (≈ 166 µg/mL) | Cc1ccc(S(=O)(=O)C2(C(=O)OC(C)C)CC2)cc1 |
| 97.6 (≈ 33.9 µg/mL) | COC(=O)C1(S(=O)(=O)c2ccc(Br)cc2)CCCC1 |
| 1320 (≈ 335 µg/mL) | COC(=O)C1(S(=O)(=O)c2ccc(C)cc2)CC1 |
